Assay results published in ChEMBL document CHEMBL5291721, “A preclinical secondary pharmacology resource illuminates target-adverse drug reaction associations of marketed drugs” (Nat Commun, 2023).

Assays:
Histamine H2 receptor = Histamine H2 receptor (Homo sapiens, UniProt P25021); type: functional, cell-based
[1] = target: T1, Muscarinic acetylcholine receptor M2 (Homo sapiens, UniProt P08172); type: functional, cell-based
T1 sequence (P08172 whole entry): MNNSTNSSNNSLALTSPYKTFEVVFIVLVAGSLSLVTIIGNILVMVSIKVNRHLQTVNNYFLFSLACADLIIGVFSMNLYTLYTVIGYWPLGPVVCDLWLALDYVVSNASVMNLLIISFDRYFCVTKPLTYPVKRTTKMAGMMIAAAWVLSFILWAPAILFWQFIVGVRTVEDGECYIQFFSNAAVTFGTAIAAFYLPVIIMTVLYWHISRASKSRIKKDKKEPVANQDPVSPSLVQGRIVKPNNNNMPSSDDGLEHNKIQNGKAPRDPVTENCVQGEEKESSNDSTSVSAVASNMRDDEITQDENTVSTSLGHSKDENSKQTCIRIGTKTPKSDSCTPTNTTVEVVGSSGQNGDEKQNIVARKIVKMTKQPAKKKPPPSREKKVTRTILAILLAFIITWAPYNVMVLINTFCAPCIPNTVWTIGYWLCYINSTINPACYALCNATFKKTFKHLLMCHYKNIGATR

[2] = target: Voltage-gated inwardly rectifying potassium channel KCNH2 (Homo sapiens, UniProt Q12809); type: functional; conditions: read-out: AC50
[3] = target: Muscarinic acetylcholine receptor M3 (Homo sapiens, UniProt P20309)
[4] = target: T2, Cholecystokinin receptor type A (Homo sapiens, UniProt P32238)
T2 sequence (P32238 whole entry): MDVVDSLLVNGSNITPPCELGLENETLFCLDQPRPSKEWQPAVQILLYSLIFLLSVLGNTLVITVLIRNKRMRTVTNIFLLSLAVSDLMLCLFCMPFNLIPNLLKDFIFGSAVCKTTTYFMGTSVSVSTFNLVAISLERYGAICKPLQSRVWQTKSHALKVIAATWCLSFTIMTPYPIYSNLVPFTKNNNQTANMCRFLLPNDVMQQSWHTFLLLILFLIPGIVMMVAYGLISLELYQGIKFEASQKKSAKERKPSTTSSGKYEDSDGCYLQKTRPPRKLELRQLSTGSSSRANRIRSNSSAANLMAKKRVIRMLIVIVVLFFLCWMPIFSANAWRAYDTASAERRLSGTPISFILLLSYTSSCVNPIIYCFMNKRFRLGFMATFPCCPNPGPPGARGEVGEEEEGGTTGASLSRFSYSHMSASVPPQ

D(1A) dopamine receptor = D(1A) dopamine receptor (Homo sapiens, UniProt P21728); type: functional, cell-based
[5] = target: T3, Alpha-2A adrenergic receptor (Homo sapiens, UniProt P08913); type: functional, cell-based
T3 sequence (P08913 whole entry): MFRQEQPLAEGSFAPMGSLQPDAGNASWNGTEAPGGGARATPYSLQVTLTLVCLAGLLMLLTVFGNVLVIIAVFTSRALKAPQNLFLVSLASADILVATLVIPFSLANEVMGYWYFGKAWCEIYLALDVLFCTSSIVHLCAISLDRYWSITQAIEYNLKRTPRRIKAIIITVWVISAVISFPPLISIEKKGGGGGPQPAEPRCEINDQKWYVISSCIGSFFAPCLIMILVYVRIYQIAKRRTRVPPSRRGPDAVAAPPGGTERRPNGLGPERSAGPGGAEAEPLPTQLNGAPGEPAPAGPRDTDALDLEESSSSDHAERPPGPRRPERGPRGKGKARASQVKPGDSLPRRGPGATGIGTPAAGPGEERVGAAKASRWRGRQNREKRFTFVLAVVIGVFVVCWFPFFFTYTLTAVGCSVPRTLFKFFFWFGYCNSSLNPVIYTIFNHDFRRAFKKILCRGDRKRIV

[6] = target: 5-hydroxytryptamine receptor 2B (Homo sapiens, UniProt P41595); type: functional, cell-based
[7] = target: T4, Alpha-2C adrenergic receptor (Homo sapiens, UniProt P18825); type: functional
T4 sequence (P18825 whole entry): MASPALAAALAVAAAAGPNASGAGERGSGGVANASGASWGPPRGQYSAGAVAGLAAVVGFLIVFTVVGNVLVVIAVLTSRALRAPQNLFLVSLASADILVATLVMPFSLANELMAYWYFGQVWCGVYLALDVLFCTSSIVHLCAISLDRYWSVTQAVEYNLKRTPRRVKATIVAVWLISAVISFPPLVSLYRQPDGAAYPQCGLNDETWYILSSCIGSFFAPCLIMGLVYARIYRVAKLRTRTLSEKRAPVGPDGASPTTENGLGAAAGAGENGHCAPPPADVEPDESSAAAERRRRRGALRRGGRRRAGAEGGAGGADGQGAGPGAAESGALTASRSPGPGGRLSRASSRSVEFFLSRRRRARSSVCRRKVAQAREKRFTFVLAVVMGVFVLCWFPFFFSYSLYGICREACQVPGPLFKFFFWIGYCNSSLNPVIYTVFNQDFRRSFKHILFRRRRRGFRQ

Vasopressin V2 receptor = Vasopressin V2 receptor (Homo sapiens, UniProt P30518)
B2 bradykinin receptor = target: T5, B2 bradykinin receptor (Homo sapiens, UniProt P30411)
T5 sequence (P30411 whole entry): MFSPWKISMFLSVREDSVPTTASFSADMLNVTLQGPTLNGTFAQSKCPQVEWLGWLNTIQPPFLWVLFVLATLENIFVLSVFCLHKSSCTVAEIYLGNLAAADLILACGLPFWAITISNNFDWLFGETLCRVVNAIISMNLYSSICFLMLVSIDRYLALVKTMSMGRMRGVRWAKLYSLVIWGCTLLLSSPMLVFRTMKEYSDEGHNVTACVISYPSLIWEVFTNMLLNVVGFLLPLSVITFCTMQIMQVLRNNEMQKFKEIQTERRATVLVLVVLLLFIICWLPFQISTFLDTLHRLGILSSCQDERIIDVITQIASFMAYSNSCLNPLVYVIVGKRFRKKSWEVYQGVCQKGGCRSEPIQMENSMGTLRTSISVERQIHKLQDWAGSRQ

Melanocortin receptor 3 = Melanocortin receptor 3 (Homo sapiens, UniProt P41968)
Note: assay procedure not described here.

Voltage-gated inwardly rectifying potassium channel KCNH2, sequence (Q12809 whole entry): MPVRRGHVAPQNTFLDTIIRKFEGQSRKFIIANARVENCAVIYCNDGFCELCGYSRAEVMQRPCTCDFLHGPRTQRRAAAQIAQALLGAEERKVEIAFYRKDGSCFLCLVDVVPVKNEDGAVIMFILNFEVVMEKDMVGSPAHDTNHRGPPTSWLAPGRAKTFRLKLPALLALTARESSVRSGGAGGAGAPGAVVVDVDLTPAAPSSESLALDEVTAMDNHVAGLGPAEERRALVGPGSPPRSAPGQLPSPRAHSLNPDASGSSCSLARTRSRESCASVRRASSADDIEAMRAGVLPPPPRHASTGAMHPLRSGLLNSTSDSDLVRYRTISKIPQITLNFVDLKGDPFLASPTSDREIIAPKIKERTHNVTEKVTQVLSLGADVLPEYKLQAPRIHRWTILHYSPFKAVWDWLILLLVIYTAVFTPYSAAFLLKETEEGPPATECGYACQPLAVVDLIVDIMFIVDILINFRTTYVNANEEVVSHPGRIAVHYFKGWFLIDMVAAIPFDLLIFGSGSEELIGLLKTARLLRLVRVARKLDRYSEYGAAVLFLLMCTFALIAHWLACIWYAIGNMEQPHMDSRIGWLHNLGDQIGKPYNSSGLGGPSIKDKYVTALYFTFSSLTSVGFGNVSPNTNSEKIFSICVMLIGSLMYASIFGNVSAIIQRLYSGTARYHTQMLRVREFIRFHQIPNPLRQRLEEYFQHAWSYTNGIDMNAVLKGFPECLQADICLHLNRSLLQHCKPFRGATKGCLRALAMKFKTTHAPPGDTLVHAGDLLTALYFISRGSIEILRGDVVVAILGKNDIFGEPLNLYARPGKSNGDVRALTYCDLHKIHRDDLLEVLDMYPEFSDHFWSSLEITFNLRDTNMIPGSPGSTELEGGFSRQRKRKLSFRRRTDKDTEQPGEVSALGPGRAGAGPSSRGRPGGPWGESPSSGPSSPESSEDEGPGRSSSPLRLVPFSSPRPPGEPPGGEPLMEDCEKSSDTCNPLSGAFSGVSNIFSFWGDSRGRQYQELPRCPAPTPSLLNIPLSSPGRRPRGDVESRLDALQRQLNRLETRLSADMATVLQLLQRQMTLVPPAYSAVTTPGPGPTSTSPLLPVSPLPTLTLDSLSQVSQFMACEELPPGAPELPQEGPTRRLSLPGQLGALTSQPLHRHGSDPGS
Melanocortin receptor 3, sequence (P41968 whole entry): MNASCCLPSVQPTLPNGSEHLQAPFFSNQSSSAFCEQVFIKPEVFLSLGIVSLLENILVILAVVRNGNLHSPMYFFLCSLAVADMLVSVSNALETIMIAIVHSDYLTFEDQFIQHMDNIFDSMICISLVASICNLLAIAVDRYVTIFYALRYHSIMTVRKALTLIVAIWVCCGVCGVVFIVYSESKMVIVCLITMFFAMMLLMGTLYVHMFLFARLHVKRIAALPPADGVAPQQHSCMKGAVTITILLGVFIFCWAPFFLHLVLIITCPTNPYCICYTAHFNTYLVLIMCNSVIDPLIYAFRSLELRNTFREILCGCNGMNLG
Histamine H2 receptor, sequence (P25021 whole entry): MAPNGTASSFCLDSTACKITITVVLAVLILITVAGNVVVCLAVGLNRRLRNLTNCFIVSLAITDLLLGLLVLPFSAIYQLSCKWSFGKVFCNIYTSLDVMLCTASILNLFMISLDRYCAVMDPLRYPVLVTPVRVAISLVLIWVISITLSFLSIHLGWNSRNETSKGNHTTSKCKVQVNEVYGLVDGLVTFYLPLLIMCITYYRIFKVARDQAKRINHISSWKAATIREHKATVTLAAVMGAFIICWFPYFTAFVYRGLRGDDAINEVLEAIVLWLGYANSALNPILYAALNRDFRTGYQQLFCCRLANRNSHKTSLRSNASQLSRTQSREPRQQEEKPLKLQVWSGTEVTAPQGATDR
D(1A) dopamine receptor, sequence (P21728 whole entry): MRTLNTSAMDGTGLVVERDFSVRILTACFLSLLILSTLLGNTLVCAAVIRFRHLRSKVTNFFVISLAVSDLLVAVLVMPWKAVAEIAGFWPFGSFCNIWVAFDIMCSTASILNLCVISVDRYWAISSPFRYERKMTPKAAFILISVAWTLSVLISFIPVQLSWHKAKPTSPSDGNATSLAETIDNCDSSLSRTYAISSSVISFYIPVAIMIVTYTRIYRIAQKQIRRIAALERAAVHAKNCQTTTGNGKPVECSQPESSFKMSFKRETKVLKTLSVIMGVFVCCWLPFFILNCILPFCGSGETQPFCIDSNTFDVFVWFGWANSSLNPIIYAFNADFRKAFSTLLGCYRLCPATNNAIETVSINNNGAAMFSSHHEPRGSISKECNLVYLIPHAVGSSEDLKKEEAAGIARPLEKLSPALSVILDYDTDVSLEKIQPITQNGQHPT
Vasopressin V2 receptor, sequence (P30518 whole entry): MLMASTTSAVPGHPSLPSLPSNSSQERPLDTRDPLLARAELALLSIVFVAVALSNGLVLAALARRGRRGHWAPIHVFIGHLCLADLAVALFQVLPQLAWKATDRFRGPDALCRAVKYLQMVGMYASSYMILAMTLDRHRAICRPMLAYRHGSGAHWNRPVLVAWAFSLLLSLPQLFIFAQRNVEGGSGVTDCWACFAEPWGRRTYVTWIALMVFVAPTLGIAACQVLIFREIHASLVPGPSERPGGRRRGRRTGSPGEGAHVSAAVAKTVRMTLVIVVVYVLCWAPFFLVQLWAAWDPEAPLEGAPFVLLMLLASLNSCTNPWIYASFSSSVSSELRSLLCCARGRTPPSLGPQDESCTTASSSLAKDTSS
Muscarinic acetylcholine receptor M3, sequence (P20309 whole entry): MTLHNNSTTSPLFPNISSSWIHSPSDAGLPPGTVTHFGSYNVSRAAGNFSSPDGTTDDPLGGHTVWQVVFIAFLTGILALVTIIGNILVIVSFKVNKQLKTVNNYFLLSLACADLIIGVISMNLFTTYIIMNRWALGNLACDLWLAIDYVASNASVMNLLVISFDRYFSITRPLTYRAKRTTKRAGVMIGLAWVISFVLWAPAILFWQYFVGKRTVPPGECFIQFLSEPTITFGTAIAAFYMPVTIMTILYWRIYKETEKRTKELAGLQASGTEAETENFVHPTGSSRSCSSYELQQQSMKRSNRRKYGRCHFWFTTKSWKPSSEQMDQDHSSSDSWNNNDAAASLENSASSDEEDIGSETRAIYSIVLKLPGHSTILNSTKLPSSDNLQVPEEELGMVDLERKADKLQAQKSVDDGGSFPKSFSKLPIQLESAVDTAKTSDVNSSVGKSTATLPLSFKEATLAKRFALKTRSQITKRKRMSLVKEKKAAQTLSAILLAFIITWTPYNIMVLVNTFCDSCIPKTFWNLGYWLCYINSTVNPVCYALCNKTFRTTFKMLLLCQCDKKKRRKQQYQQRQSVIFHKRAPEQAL
5-hydroxytryptamine receptor 2B, sequence (P41595 whole entry): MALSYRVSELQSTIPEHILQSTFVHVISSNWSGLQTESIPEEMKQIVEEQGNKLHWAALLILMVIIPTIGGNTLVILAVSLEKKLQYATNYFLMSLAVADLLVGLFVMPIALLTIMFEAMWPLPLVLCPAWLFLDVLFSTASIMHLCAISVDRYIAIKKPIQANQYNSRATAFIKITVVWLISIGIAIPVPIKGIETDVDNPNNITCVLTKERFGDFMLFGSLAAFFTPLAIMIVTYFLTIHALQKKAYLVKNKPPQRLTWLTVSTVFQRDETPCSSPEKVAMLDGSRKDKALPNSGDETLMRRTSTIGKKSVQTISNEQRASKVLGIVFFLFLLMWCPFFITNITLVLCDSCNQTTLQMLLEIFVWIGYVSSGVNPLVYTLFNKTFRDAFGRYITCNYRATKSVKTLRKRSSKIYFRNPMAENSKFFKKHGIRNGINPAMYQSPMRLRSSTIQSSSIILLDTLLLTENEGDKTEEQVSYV

| SMILES | AC50 (Histamine H2 receptor) [µM] | AC50 [1] [µM] | AC50 [2] [µM] | AC50 [3] [µM] | AC50 [4] [µM] | AC50 (D(1A) dopamine receptor) [µM] | AC50 [5] [µM] | AC50 [6] [µM] | AC50 [7] [µM] | AC50 (Vasopressin V2 receptor) [µM] | AC50 (B2 bradykinin receptor) [µM] | AC50 (Melanocortin receptor 3) [µM] |
| --- | --- | --- | --- | --- | --- | --- | --- | --- | --- | --- | --- | --- |
| O=C(O)[C@H](CC(=O)N1C[C@H]2CCCC[C@H]2C1)Cc1ccccc1 [MITIGLINIDE] | > 10 | > 10 | > 30 | > 30 | > 10 | > 10 | > 10 | > 10 | > 10 | > 10 | > 10 | > 10 |
| CCOC(=O)[N-]c1cn(N2CCOCC2)n[o+]1 [MOLSIDOMINE] | > 30 | > 30 | > 30 | > 30 | > 30 | > 30 | > 30 | > 30 | > 30 | > 30 | > 30 | > 30 |
| OC(CNCC(O)C1CCc2cc(F)ccc2O1)C1CCc2cc(F)ccc2O1 (stereo not given) [NEBIVOLOL] | > 30 | > 10 | 0.83 | > 30 | > 30 | > 30 | 8.1 | 8.8 | 2 | 29 | > 30 | 8.7 |
| CCCc1nc(C(C)(C)O)c(C(=O)OCc2oc(=O)oc2C)n1Cc1ccc(-c2ccccc2-c2nnn[nH]2)cc1 [OLMESARTAN MEDOXOMIL] | > 10 | > 10 | > 30 | > 10 | > 50 | > 10 | > 10 | > 10 | > 10 | > 30 | > 30 | > 50 |
| O=C(O)/C=C/c1ccc(Cn2ccnc2)cc1 [OZAGREL] | > 30 | > 30 | > 30 | > 30 | > 30 | > 30 | > 30 | > 30 | > 30 | > 30 | > 30 | > 30 |
| CCCC(C)C1(CC)C(=O)NC(=O)NC1=O (stereo not given) [PENTOBARBITAL] | > 30 | > 10 | > 30 | > 30 | > 10 | > 30 | > 10 | > 10 | > 30 | > 10 | > 10 | > 10 |
| O=C(O)C[C@H](O)C[C@H](O)/C=C/c1c(C2CC2)nc2ccccc2c1-c1ccc(F)cc1 [PITAVASTATIN] | > 10 | > 30 | > 30 | > 30 | > 10 | > 10 | > 10 | > 10 | > 30 | > 10 | > 10 | > 30 |
| CN1CCC(=C2c3ccccc3CCc3sccc32)CC1 [PIZOTYLINE] | > 10 | 0.123 | 2.31 | > 10 | > 30 | > 30 | 3.97 | 0.0279 | 2.1 | > 30 | > 30 | > 30 |
| C#C[C@]1(O)CC[C@H]2[C@@H]3CCc4cc(OC5CCCC5)ccc4[C@H]3CC[C@@]21C [QUINESTROL] | > 10 | > 10 | > 30 | > 30 | > 10 | > 10 | > 10 | > 10 | > 10 | > 10 | > 10 | > 10 |
| COC(=O)[C@H]1[C@H]2C[C@@H]3c4[nH]c5cc(OC)ccc5c4CCN3C[C@H]2C[C@@H](OC(=O)/C=C/c2cc(OC)c(OC)c(OC)c2)[C@@H]1OC [RESCINNAMINE] | > 30 | > 10 | 0.988 | > 30 | > 10 | > 30 | > 10 | > 10 | > 10 | > 10 | > 10 | > 10 |
| Cc1ccc(-n2nccn2)c(C(=O)N2CCN(c3nc4cc(Cl)ccc4o3)CC[C@H]2C)c1 [SUVOREXANT] | > 30 | > 30 | 22 | > 30 | > 30 | > 30 | > 30 | > 30 | > 30 | > 30 | > 30 | > 30 |
| C=CCC1(C(C)CC)C(=O)NC(=O)NC1=O (stereo not given) [TALBUTAL] | > 10 | > 10 | > 30 | > 30 | > 10 | > 10 | > 10 | > 10 | > 10 | > 10 | > 10 | > 10 |
| CCN(CC)C(=O)N[C@H]1C[C@@H]2c3cccc4[nH]cc(c34)C[C@H]2N(C)C1 [TERGURIDE] | 15 | > 30 | 18 | > 30 | > 30 | 0.049 | 0.018 | 0.58 | 0.0031 | > 30 | > 30 | > 30 |
| COc1cc2c(N)nc(N3CCN(C(=O)OCC(C)(C)O)CC3)nc2c(OC)c1OC [TRIMAZOSIN] | > 30 | > 30 | 17 | > 30 | > 30 | > 30 | > 30 | > 30 | 13 | > 30 | > 30 | > 30 |
| C=CCN1CCCC1CNC(=O)c1cc(S(N)(=O)=O)cc(OC)c1OC (stereo not given) [VERALIPRIDE] | > 30 | > 30 | 7.6 | > 30 | > 30 | > 30 | 26 | > 30 | 10 | > 30 | > 30 | > 30 |
